Results reported in PubChem BioAssay (NCI).
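Tested at 5 concentrations; 48 h exposure; 96-well plates; endpoints linearly interpolated, else capped at highest concentration. Here, GI50 denotes the concentration required for 50% inhibition of growth. TGI is the concentration that stops growth completely.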

Tests used:
Assay in all cases: inhibition of tumour cell growth, NCI panel, 48 h
OVCAR-8 ovarian = test system: OVCAR-8 ovarian
HCC-2998 colon = test system: HCC-2998 colon
OVCAR-3 ovarian = test system: OVCAR-3 ovarian
SF-268 CNS = test system: SF-268 CNS
M14 melanoma = test system: M14 melanoma
OVCAR-4 ovarian = test system: OVCAR-4 ovarian
SNB-75 CNS = test system: SNB-75 CNS
EKVX NSCLC = test system: EKVX NSCLC
HT29 colon = test system: HT29 colon
SR leukemia = test system: SR leukemia
SN12C renal = test system: SN12C renal
MCF7 breast = test system: MCF7 breast
PC-3 prostate = test system: PC-3 prostate
K-562 leukemia = test system: K-562 leukemia
SK-MEL-2 melanoma = test system: SK-MEL-2 melanoma
A498 renal = test system: A498 renal
SK-OV-3 ovarian = test system: SK-OV-3 ovarian
786-0 renal = test system: 786-0 renal
SNB-19 CNS = test system: SNB-19 CNS
HCT-116 colon = test system: HCT-116 colon
SK-MEL-5 melanoma = test system: SK-MEL-5 melanoma
COLO 205 colon = test system: COLO 205 colon
CCRF-CEM leukemia = test system: CCRF-CEM leukemia
MALME-3M melanoma = test system: MALME-3M melanoma
OVCAR-5 ovarian = test system: OVCAR-5 ovarian
BT-549 breast = test system: BT-549 breast
NCI-H226 lung = test system: NCI-H226 lung
SF-539 CNS = test system: SF-539 CNS
HS 578T breast = test system: HS 578T breast
NCI-H460 lung = test system: NCI-H460 lung
MDA-MB-231 breast = test system: MDA-MB-231 breast
HOP-62 NSCLC = test system: HOP-62 NSCLC
KM12 colon = test system: KM12 colon
TK-10 renal = test system: TK-10 renal
UACC-62 melanoma = test system: UACC-62 melanoma
CAKI-1 renal = test system: CAKI-1 renal
U251 CNS = test system: U251 CNS
DU-145 prostate = test system: DU-145 prostate
NCI/ADR-RES ovarian = test system: NCI/ADR-RES ovarian
RPMI-8226 leukemia = test system: RPMI-8226 leukemia
NCI-H23 lung = test system: NCI-H23 lung
ACHN renal = test system: ACHN renal
UACC-257 melanoma = test system: UACC-257 melanoma
LOX IMVI melanoma = test system: LOX IMVI melanoma
SW-620 colon = test system: SW-620 colon
A549 NSCLC = test system: A549 NSCLC
T-47D breast = test system: T-47D breast
IGROV1 ovarian = test system: IGROV1 ovarian
UO-31 renal = test system: UO-31 renal
SK-MEL-28 melanoma = test system: SK-MEL-28 melanoma
HL-60(TB) leukemia = test system: HL-60(TB) leukemia
MDA-MB-435 = test system: MDA-MB-435
RXF 393 renal = test system: RXF 393 renal
HCT-15 colon = test system: HCT-15 colon
HOP-92 NSCLC = test system: HOP-92 NSCLC
MOLT-4 leukemia = test system: MOLT-4 leukemia
SF-295 CNS = test system: SF-295 CNS
MDA-MB-468 breast = test system: MDA-MB-468 breast
NCI-H522 lung = test system: NCI-H522 lung

CN(C)CCNC(=O)OCCCCOc1cc(O)c2c(=O)cc(-c3ccccc3)oc2c1
GI50 (OVCAR-8 ovarian): 10 µM
TGI (OVCAR-8 ovarian): 24.5 µM
GI50 (HCC-2998 colon): 3.25 µM
TGI (HCC-2998 colon): 10.3 µM
GI50 (OVCAR-3 ovarian): 4.42 µM
TGI (OVCAR-3 ovarian): 16.3 µM
GI50 (SF-268 CNS): 3.51 µM
TGI (SF-268 CNS): 16.2 µM
GI50 (M14 melanoma): 1.89 µM
TGI (M14 melanoma): 3.78 µM
GI50 (OVCAR-4 ovarian): 10.1 µM
TGI (OVCAR-4 ovarian): 24.7 µM
GI50 (SNB-75 CNS): 11 µM
TGI (SNB-75 CNS): 24 µM
GI50 (EKVX NSCLC): 7.87 µM
TGI (EKVX NSCLC): 20.2 µM
GI50 (HT29 colon): 1.88 µM
TGI (HT29 colon): 3.98 µM
GI50 (SR leukemia): 1.95 µM
TGI (SR leukemia): 4.16 µM
GI50 (SN12C renal): 13.8 µM
TGI (SN12C renal): 27.4 µM
GI50 (MCF7 breast): 1.59 µM
TGI (MCF7 breast): 3.76 µM
GI50 (PC-3 prostate): 4.35 µM
TGI (PC-3 prostate): 17.9 µM
GI50 (K-562 leukemia): 1.96 µM
TGI (K-562 leukemia): 5.98 µM
GI50 (SK-MEL-2 melanoma): 2.88 µM
TGI (SK-MEL-2 melanoma): 9.08 µM
GI50 (A498 renal): 2.21 µM
TGI (A498 renal): 5.77 µM
GI50 (SK-OV-3 ovarian): 11.3 µM
TGI (SK-OV-3 ovarian): 23.7 µM
GI50 (786-0 renal): 2 µM
TGI (786-0 renal): 4.72 µM
GI50 (SNB-19 CNS): 6.09 µM
TGI (SNB-19 CNS): 20.3 µM
GI50 (HCT-116 colon): 2.01 µM
TGI (HCT-116 colon): 4.85 µM
GI50 (SK-MEL-5 melanoma): 1.65 µM
TGI (SK-MEL-5 melanoma): 3.03 µM
GI50 (COLO 205 colon): 1.84 µM
TGI (COLO 205 colon): 3.5 µM
GI50 (CCRF-CEM leukemia): 3.21 µM
TGI (CCRF-CEM leukemia): 10.7 µM
GI50 (MALME-3M melanoma): 1.57 µM
TGI (MALME-3M melanoma): 2.97 µM
GI50 (OVCAR-5 ovarian): 11.8 µM
TGI (OVCAR-5 ovarian): 24.2 µM
GI50 (BT-549 breast): 10.6 µM
TGI (BT-549 breast): 22.7 µM
GI50 (NCI-H226 lung): 10.1 µM
TGI (NCI-H226 lung): 28.8 µM
GI50 (SF-539 CNS): 1.53 µM
TGI (SF-539 CNS): 2.93 µM
GI50 (HS 578T breast): 4.35 µM
TGI (HS 578T breast): 23.4 µM
GI50 (NCI-H460 lung): 3.01 µM
TGI (NCI-H460 lung): 10.1 µM
GI50 (MDA-MB-231 breast): 1.74 µM
TGI (MDA-MB-231 breast): 3.78 µM
GI50 (HOP-62 NSCLC): 10.4 µM
TGI (HOP-62 NSCLC): 24.4 µM
GI50 (KM12 colon): 6.09 µM
TGI (KM12 colon): 20.4 µM
GI50 (TK-10 renal): 18.5 µM
TGI (TK-10 renal): 33.2 µM
GI50 (UACC-62 melanoma): 1.78 µM
TGI (UACC-62 melanoma): 3.43 µM
GI50 (CAKI-1 renal): 3.04 µM
TGI (CAKI-1 renal): 12.2 µM
GI50 (U251 CNS): 2.31 µM
TGI (U251 CNS): 6.74 µM
GI50 (DU-145 prostate): 3.73 µM
TGI (DU-145 prostate): 13.9 µM
GI50 (NCI/ADR-RES ovarian): 7.37 µM
TGI (NCI/ADR-RES ovarian): 34.2 µM
GI50 (RPMI-8226 leukemia): 2.97 µM
TGI (RPMI-8226 leukemia): 9.69 µM
GI50 (NCI-H23 lung): 7.23 µM
TGI (NCI-H23 lung): 20.4 µM
GI50 (ACHN renal): 1.92 µM
TGI (ACHN renal): 3.97 µM
GI50 (UACC-257 melanoma): 1.89 µM
TGI (UACC-257 melanoma): 3.61 µM
GI50 (LOX IMVI melanoma): 1.79 µM
TGI (LOX IMVI melanoma): 3.25 µM
GI50 (SW-620 colon): 2.03 µM
TGI (SW-620 colon): 4.49 µM
GI50 (A549 NSCLC): 5.26 µM
TGI (A549 NSCLC): 19.3 µM
GI50 (T-47D breast): 1.88 µM
TGI (T-47D breast): 4.23 µM
GI50 (IGROV1 ovarian): 15.7 µM
TGI (IGROV1 ovarian): 29.6 µM
GI50 (UO-31 renal): 4.56 µM
TGI (UO-31 renal): 16.9 µM
GI50 (SK-MEL-28 melanoma): 1.62 µM
TGI (SK-MEL-28 melanoma): 3.1 µM
GI50 (HL-60(TB) leukemia): 1.64 µM
TGI (HL-60(TB) leukemia): 3.59 µM
GI50 (MDA-MB-435): 2.12 µM
TGI (MDA-MB-435): 4.66 µM
GI50 (RXF 393 renal): 1.64 µM
TGI (RXF 393 renal): 3.35 µM
GI50 (HCT-15 colon): 2.25 µM
TGI (HCT-15 colon): 5.8 µM
GI50 (HOP-92 NSCLC): 4.35 µM
TGI (HOP-92 NSCLC): 19.1 µM
GI50 (MOLT-4 leukemia): 2.25 µM
TGI (MOLT-4 leukemia): 6.24 µM
GI50 (SF-295 CNS): 2.14 µM
TGI (SF-295 CNS): 4.06 µM
GI50 (MDA-MB-468 breast): 1.78 µM
TGI (MDA-MB-468 breast): 4.16 µM
GI50 (NCI-H522 lung): 3.68 µM
TGI (NCI-H522 lung): 16 µM
